Assay results reported in patent publication US4443619A, “Chlorocitric acids” (Hoffmann-La Roche Inc., priority 1981, dated 1984).
Counter-ions that a name gives are not always drawn.

How the values were obtained:
[1] = Effect of stereoisomers of chlorocitric acid on food consumption in meal-fed rats (Example 14); format: in vivo, Charles River female rats; settings: mean ± S.E.
Procedure: Animals were fasted 48 hr, then meal-fed the 70% glucose diet described by A. C. […] Following 5 to 12 days alimentation on the meal-feeding regimen, rats were dosed with the appropriate compounds orally by intubation 1/2 hr before the 3 hr meal. Food cups were weighed immediately after the meal. The control group consisted of 5 to 10 rats, while the experimental group consisted of 4 to 6 rats.

[2] = Anorectic activities of stereoisomers: 3-day food consumption and body weight gain in meal-fed rats; format: in vivo, Charles River female rats; settings: 1.32 mmoles/kg oral, 3 days, mean ± S.E.
Procedure: Charles River female rats (Charles River Breeding Laboratories, Wilmington, Mass.), weighing 196 to 210 g, were individually housed in wire-bottomed cages in a temperature-regulated (22° C.) light-controlled room (12 hr light, 6 a.m. to 6 p.m. and 12 hr dark, 6 p.m. to 6 a.m.). Animals were fasted 48 hr, then meal-fed a 70% glucose diet from 8 to 11 a.m. Following 5 to 12 days alimentation on the meal-feeding regimen, rats were dosed with the appropriate compounds orally by intubation 1/2 hr before the 3 hr meal for 3 days. The total food consumption and body weight gained during the 3 day period were determined. The control group consisted of 16 rats, while the experimental group consists of 8 rats.

[3] = test system: Stomach Emptying; experiment: Effect on stomach emptying ([14C]glucose load) in rats (Example 25); format: in vivo; settings: 0.33 mmoles/kg oral, 60 min after [14C]glucose load, mean ± S.E.
Procedure: Rats were trained to consume a 3 hr 70% glucose meal from 8 a.m. to 11 a.m. daily. On the experimental day, compounds were administered orally by intubation 30 min before a [^14 C]glucose load was given also by intubation. […] Sixty minutes later the rats were killed by decapitation; blood and stomachs were collected on ice.
Data are expressed as follows: dpm×10^3 per ml of serum and dpm×10^3 per stomach.

[4] = Food consumption of three diets in meal-fed rats (Example 15); format: in vivo, Charles River female rats; settings: mean ± S.E.
Procedure: Charles River female rats (Charles River Breeding Laboratories, Wilmington, Mass.), weighing 170 to 200 g, were individually housed in wire-bottomed cages in a temperature-regulated (22° C.) light-controlled room (12 hr light, 6 a.m. to 6 p.m. and 12 hr dark, 6 p.m. to 6 a.m.). Animals were fasted 48 hr, then meal-fed the indicated diets from 8 to 11 a.m. Following 5 to 12 days alimentation on the meal-feeding regimen, rats were dosed with the appropriate compounds orally by intubation 1/2 hr before the 3 hr meal. Food cups were weighed immediately after the 1st, 2nd and 3rd hr of the meal. The control groups consisted of 8 to 10 rats and the experimental group considered of 5 to 6 rats.

[5] = Anorectic effect in 8 hour meal-fed Zucker rats (Example 17); format: in vivo, lean (Fa/-) and obese (fa/fa)
Procedure: Lean (Fa/-) Zucker rats and obese (fa/fa) Zucker rats of both sexes were individually housed in wire-bottomed cages in a temperature-regulated (22° C.) light-controlled room (12 hr light, 6 a.m. to 6 p.m. and 12 hr dark, 6 p.m. 6 a.m.). The animals were fed a high carbohydrate (70% glucose) diet ad libitum for 13 days, dosed with the indicated compounds by oral intubation for 9 days and allowed to recover for 3 days. The animals were then meal fed from 8 a.m. to 4 p.m. for a period of 5 days, following which they were continued on the same meal schedule for an additional 6 days. During the 6-day period, the animals were administered the indicated compounds by oral intubation at 8 a.m. and 12 p.m. Food cups were weighed immediately after the meal.

[6] = Body weight gain in 8 hour meal-fed Zucker rats (Example 18); format: in vivo, lean (Fa/-) and obese (fa/fa); settings: 6 days, mean ± S.E.
Procedure: Lean (Fa/-) Zucker rats and obese (fa/fa) Zucker rats of both sexes were individually housed in wire-bottomed cages in a temperature-regulated (22° C.) light-controlled room (12 hr light, 6 a.m. to 6 p.m. and 12 hr dark, 6 p.m. to 6 a.m.). The animals were fed a high carbohydrate (70% glucose) diet ad libitum for 13 days, dosed with the indicated compounds by oral intubation for 9 days and allowed to recover for 3 days. The animals were then meal fed from 8 a.m. to 4 p.m. for a period of 5 days, following which they were continued on the same meal schedule for an additional 6 days. During the 6-day period, the animals were administered the indicated compounds by oral intubation at 8 a.m. and 12 p.m. Body weight gain during the 6-day period was determined.

[7] = Food intake in dogs, pyramiding oral doses (Examples 26 and 27); format: in vivo, beagle dogs
Procedure: Twelve beagle dogs of both sexes weighing 7.6-12.2 kg were used for this test. The test compounds were contained in gelatin capsules for oral administration to two dogs of each sex. The animals were weighed and food consumption calculated daily excluding weekends throughout the test period. Each animal received 800 grams of diet daily consisting of 400 grams of Wayne pellet dog food mixed with 400 ml distilled water. The animals received pyramiding oral doses of the test compound over the three week period. On Monday and Tuesday of the first week the animals were weighed and food consumption was recorded (control). The animals received 3 mg/kg on Wednesday and 10 mg/kg on Friday of the first week. Doses of 30, 100 and 300 mg/kg were administered on Monday, Wednesday and Friday respectively during the second week. A final dose of 1000 mg/kg was administered on Monday of the third week.
Food intake was determined by the procedure by pyramiding doses described in Example 26.

[8] = Anorectic activity, body weight and carcass analysis in mammals (summary statements); format: in vivo; settings: acute meal-fed assay utilizing three diets and pyramiding dose studies; compared with hydroxycitric acid
[9] = 0.66 mmoles/kg oral, control 8.2 ± 1.2
[10] = 2.63 mmoles/kg oral, control 13.5 ± 0.8
[11] = 20% Corn Oil, 0.33 mmoles (75 mg)/kg oral
[12] = 20% Corn Oil, 0.66 mmoles (150 mg)/kg oral
[13] = 70% Glucose, 0.33 mmoles (75 mg)/kg oral
[14] = 70% Glucose, 0.66 mmoles (150 mg)/kg oral
[15] = Chow, 0.33 mmoles (75 mg)/kg oral
[16] = Chow, 0.66 mmoles (150 mg)/kg oral
[17] = test day 20, no dose, (±) one animal, (+) and (-) two animals

O=C(O)C[C@@](O)(C(=O)O)[C@H](Cl)C(=O)O [(+)-erythro-Chlorocitric acid, (+)-erythro-chlorocitric acid]
Food consumption [1, 9]: 8.1 ± 1.6 g
Food consumption [1, 10]: 10.5 ± 0.8 g
3-Day Body Weight Gain [2]: -1.5 ± 2.3 g
3-Day Food Consumption [2]: 31.8 ± 2.3 g
Serum, total per ml [3]: 5.0 ± 0.4 dpm × 10^3
Stomach Contents, total per stomach [3]: 1832 ± 160 dpm × 10^3

O=C(O)CC(O)(CC(=O)O)C(=O)O [Trisodium Citrate, reference compound]
Serum, total per ml [3]: 6.4 ± 0.1 dpm × 10^3
Stomach Contents, total per stomach [3]: 1180 ± 208 dpm × 10^3

O=C(O)C[C@](O)(C(=O)O)[C@H](Cl)C(=O)O [(+)-threo-Chlorocitric acid, (+)-threo-chlorocitric acid]
Food consumption [1, 9]: 6.8 ± 1.0 g
Food consumption [1, 10]: 5.1 ± 1.2 g
Food intake, 1st hr [4, 11]: 7.1 ± 1.2 g
Food intake, 2nd hr [4, 11]: 3.9 ± 0.5 g
Food intake, 3rd hr [4, 11]: 3.2 ± 0.6 g
Food intake, Total [4, 11]: 14.2 ± 1.2 g
Food intake, 1st hr [4, 12]: 6.7 ± 1.6 g
Food intake, 2nd hr [4, 12]: 3.1 ± 0.6 g
Food intake, 3rd hr [4, 12]: 2.2 ± 0.7 g
Food intake, Total [4, 12]: 12.3 ± 1.6 g
Food intake, 1st hr [4, 13]: 6.2 ± 1.8 g
Food intake, 2nd hr [4, 13]: 2.4 ± 0.8 g
Food intake, 3rd hr [4, 13]: 2.4 ± 0.5 g
Food intake, Total [4, 13]: 11.0 ± 2.3 g
Food intake, 1st hr [4, 14]: 3.2 ± 0.5 g
Food intake, 2nd hr [4, 14]: 5.1 ± 1.3 g
Food intake, 3rd hr [4, 14]: 1.7 ± 0.3 g
Food intake, Total [4, 14]: 10.1 ± 1.7 g
Food intake, 1st hr [4, 15]: 7.4 ± 0.6 g
Food intake, 2nd hr [4, 15]: 2.6 ± 0.7 g
Food intake, 3rd hr [4, 15]: 2.2 ± 0.5 g
Food intake, Total [4, 15]: 12.2 ± 0.4 g
Food intake, 1st hr [4, 16]: 7.7 ± 0.5 g
Food intake, 2nd hr [4, 16]: 3.9 ± 0.5 g
Food intake, 3rd hr [4, 16]: 1.8 ± 0.9 g
Food intake, Total [4, 16]: 13.4 ± 0.9 g
3-Day Body Weight Gain [2]: -3.5 ± 1.2 g
3-Day Food Consumption [2]: 26.5 ± 1.3 g
Daily Food Consumption ([5]; Fa/- lean, 0.66 mmoles/kg oral, treatment day 1): 10.1 ± 0.8 g
Daily Food Consumption ([5]; Fa/- lean, 0.66 mmoles/kg oral, treatment day 2): 8.7 ± 0.3 g
Daily Food Consumption ([5]; Fa/- lean, 0.66 mmoles/kg oral, treatment day 3): 11.7 ± 0.7 g
Daily Food Consumption ([5]; Fa/- lean, 0.66 mmoles/kg oral, treatment day 4): 9.8 ± 0.9 g
Daily Food Consumption ([5]; Fa/- lean, 0.66 mmoles/kg oral, treatment day 5): 12.8 ± 0.9 g
Daily Food Consumption ([5]; Fa/- lean, 0.66 mmoles/kg oral, treatment day 6): 11.4 ± 0.7 g
Daily Food Consumption ([5]; Fa/- lean, 0.66 mmoles/kg, day 0 (pretreatment)): 10.6 ± 0.8 g
Daily Food Consumption ([5]; fa/fa obese, 0.66 mmoles/kg oral, treatment day 1): 10.3 ± 0.4 g
Daily Food Consumption ([5]; fa/fa obese, 0.66 mmoles/kg oral, treatment day 2): 8.8 ± 0.8 g
Daily Food Consumption ([5]; fa/fa obese, 0.66 mmoles/kg oral, treatment day 3): 11.3 ± 1.0 g
Daily Food Consumption ([5]; fa/fa obese, 0.66 mmoles/kg oral, treatment day 4): 11.6 ± 1.2 g
Daily Food Consumption ([5]; fa/fa obese, 0.66 mmoles/kg oral, treatment day 5): 12.3 ± 1.5 g
Daily Food Consumption ([5]; fa/fa obese, 0.66 mmoles/kg oral, treatment day 6): 14.2 ± 1.8 g
Daily Food Consumption ([5]; fa/fa obese, 0.66 mmoles/kg, day 0 (pretreatment)): 14.3 ± 1.4 g
Body Weight Gain ([6]; Fa/- lean, 0.66 mmoles/kg b.i.d. oral): 2.5 ± 2.3 g
Body Weight Gain ([6]; fa/fa obese, 0.66 mmoles/kg b.i.d. oral): -3.6 ± 2.0 g
Serum, total per ml [3]: 3.4 ± 0.6 dpm × 10^3
Stomach Contents, total per stomach [3]: 1946 ± 361 dpm × 10^3
Food Consumption, % of control [7, 17]: 96 % of control
Food consumption [7, 17]: 583 ± 17 g
Food consumption ([7]; test days -2, -1, before dosing (control period)): 610 ± 43 g

O=C(O)C[C@](O)(C(=O)O)[C@@H](Cl)C(=O)O [(-)-erythro-Chlorocitric acid, (-)-erythro-chlorocitric acid]
Food consumption [1, 9]: 7.0 ± 1.9 g
Food consumption [1, 10]: 7.2 ± 1.5 g
3-Day Body Weight Gain [2]: -4.8 ± 3.2 g
3-Day Food Consumption [2]: 24.5 ± 1.8 g
Serum, total per ml [3]: 5.1 ± 0.4 dpm × 10^3
Stomach Contents, total per stomach [3]: 1491 ± 232 dpm × 10^3

O=C(O)CC(O)(CC(=O)O)C(=O)O [Citric Acid]
Food consumption [1, 10]: 12.7 ± 1.7 g
Daily Food Consumption ([5]; Fa/- lean, 1.32 mmoles/kg oral, treatment day 1): 10.6 ± 1.2 g
Daily Food Consumption ([5]; Fa/- lean, 1.32 mmoles/kg oral, treatment day 2): 10.0 ± 1.2 g
Daily Food Consumption ([5]; Fa/- lean, 1.32 mmoles/kg oral, treatment day 3): 12.7 ± 1.0 g
Daily Food Consumption ([5]; Fa/- lean, 1.32 mmoles/kg oral, treatment day 4): 11.9 ± 0.7 g
Daily Food Consumption ([5]; Fa/- lean, 1.32 mmoles/kg oral, treatment day 5): 12.6 ± 0.8 g
Daily Food Consumption ([5]; Fa/- lean, 1.32 mmoles/kg oral, treatment day 6): 13.1 ± 0.9 g
Daily Food Consumption ([5]; Fa/- lean, 1.32 mmoles/kg, day 0 (pretreatment)): 11.0 ± 0.8 g
Daily Food Consumption ([5]; fa/fa obese, 1.32 mmoles/kg oral, treatment day 1): 11.4 ± 0.8 g
Daily Food Consumption ([5]; fa/fa obese, 1.32 mmoles/kg oral, treatment day 2): 13.8 ± 1.2 g
Daily Food Consumption ([5]; fa/fa obese, 1.32 mmoles/kg oral, treatment day 3): 16.5 ± 1.0 g
Daily Food Consumption ([5]; fa/fa obese, 1.32 mmoles/kg oral, treatment day 4): 14.8 ± 0.9 g
Daily Food Consumption ([5]; fa/fa obese, 1.32 mmoles/kg oral, treatment day 5): 15.7 g
Daily Food Consumption ([5]; fa/fa obese, 1.32 mmoles/kg oral, treatment day 6): 16.0 ± 1.0 g
Daily Food Consumption ([5]; fa/fa obese, 1.32 mmoles/kg, day 0 (pretreatment)): 13.4 ± 0.8 g
Body Weight Gain ([6]; Fa/- lean, 1.32 mmoles/kg b.i.d. oral): 2.8 ± 3.7 g
Body Weight Gain ([6]; fa/fa obese, 1.32 mmoles/kg b.i.d. oral): 3.4 ± 1.6 g
anorectic activity as measured by reduction in food consumption [8]: inactive
